A word on the IC50: it is the concentration that inhibits the measured activity by half.

For this experiment, the system named is cell-cell fusion of TZM-bl target cells and HL2/3 effector cells (HXB2 Env). The experiment is described as follows: cell-cell fusion, luciferase reporter. The experiment is classed as cell-based, HIV-1. As to conditions: read-out: IC50 CCF, 6 hours, 1% DMSO, results ±50%. Background: In a reporter assay the amount or activity of a reporter protein is the signal.
As for [Phe]-Trp, the IC50 is 9 µM.
Turning to [Trp]-Phe, the half-inhibitory concentration (IC50) was found to be 4 µM.
The result for [Trp]-Trp reads 19 µM.

The values above are taken from paper PMC3777804 (Journal of computer-aided molecular design, 2013).
